Reference: patent US9217014B2, “Antifungal agents and uses thereof” (Cidara Therapeutics, Inc., priority 2011, dated 2015)
Where two headings read alike, the source gives them in different places.

Key:
[1] = Pharmacokinetics in beagle dogs, intravenous; format: in vivo; conditions: for Vd / half-life: dog
Protocol: The test articles were administered to beagle dogs weighing approximately 6-10 kg. Each test article was dosed at 1.4 mg/kg in aqueous saline (with or without 0.5% Tween) over course of 1-10 minutes. […] The dogs were fasted at least 12 hours prior to each dosing and offered food after the 4-hour blood sample was taken; water was withheld for 1 hour prior to and 4 hours following each dosing event. The dose for each animal was based on its most recent body weight. The test article was injected intravenously via a catheter placed in the cephalic vein as a slow bolus.
Blood was collected via the jugular vein. All blood samples (˜1 mL each) were collected into K3EDTA tubes. Following blood collection, the samples were immediately inverted several times and were held on wet ice pending centrifugation. The samples were centrifuged within ˜30 minutes of collection under refrigeration (˜5° C. for ˜10 minutes at ˜2000 g) to obtain plasma. The plasma was frozen immediately on dry ice after separation. The plasma samples were stored at approximately −70° C. until analysis.
Plasma (100 μL) was precipitated with 400 μL of 0.1% formic acid in acetonitrile containing the internal standard (100 ng/mL pneumocandin). The samples were then capped and vortexed for about 30 seconds followed by centrifugation at 14,000 rpm at room temperature for 10 minutes. Following centrifugation 200 μL of supernatant was transferred to plastic autosampler vials containing 200 μL of 0.1% formic acid in water and vortexed. Samples were then analyzed by LCMSMS.
All pharmacokinetic calculations were performed using WinNonlin version 4.1 (Pharsight Corp) by noncompartmental analysis.

[2] = tested on: C. albicans R303; experiment: mouse candidiasis infection model, IP administration, kidney fungal burden; format: in vivo; conditions: for overall performance in reducing C. albicans CFUs in the kidneys of the mice: conclusion over all runs
Protocol: The objective of these studies was to evaluate the efficacy of test compounds in the mouse candidiasis infection model. Amounts of test articles are uncorrected.
The strain, C. albicans R303 was transferred from frozen storage onto Sabauroud dextrose agar (SDA) plates and grown for ˜24 hr at 35° C. The inoculum was prepared by transferring colonies from the plate to phosphate buffered saline (PBS) and the concentration adjusted to approximately 10^6 CFU/mL with the aid of a spectrophotometer. The stock was diluted 1:9 to prepare the inoculum. Prior to each run the concentration was verified using the dilution plate count method.
Female CD-1 mice were used in this study. The animals were approximately seven-weeks-old at the start of the study and weighed about 15-30 g.
Mice were made neutropenic with IP injections of cyclophosphamide (150 mg/kg in 10 mL/kg) at 4 and 1 day before inoculation. Each animal was inoculated with the appropriate concentration by injecting 0.1 mL of inoculum into a tail vein. The test compounds were administered IP at 2 hr after infection.
In a typical procedure, the kidneys were collected from four mice in control group 1 (untreated) at 2 hr after infection, and from another four mice in control group 2 (untreated) at 24 hr after infection. Kidneys were removed aseptically from each mouse and were combined in a sterile tube. An aliquot (2 mL) of sterile PBS was added to each tube and the contents homogenized with a tissue homogenizer (Polytron 3100). Serial dilutions of the tissue homogenates were conducted and 0.1 mL aliquots were spread on SDA plates and the plates incubated at 35° C. overnight. The CFU/kidneys were determined from colony counts. Data were analyzed using one-way ANOVA with either the Tukey-Kramer Multiple Comparisons Test or Dunnett Test (GraphPad InStat version 3.06, GraphPad Software, San Diego, Calif.).
The data reported below are the average of four mice. Each run included a separate control and each is tabulated separately.

[3] = Candida albicans, R303, ip, 24 h, Second run, IP 0.5 mg/kg, read-out: Difference from 24-h control
[4] = Candida albicans, R303, ip, 24 h, Second run, IP 1.5 mg/kg, read-out: Difference from 24-h control
[5] = Candida albicans, R303, ip, 24 h, Second run, IP 4.5 mg/kg, read-out: Difference from 24-h control
[6] = Second run, IP 0.5 mg/kg, kidneys 24 h after infection
[7] = Second run, IP 1.5 mg/kg, kidneys 24 h after infection
[8] = Second run, IP 4.5 mg/kg, kidneys 24 h after infection
[9] = Candida albicans, R303, ip, 24 h, Fourth run, IP 0.5 mg/kg, read-out: Difference from 24-h control
[10] = Candida albicans, R303, ip, 24 h, Fourth run, IP 1.5 mg/kg, read-out: Difference from 24-h control
[11] = Fourth run, IP 0.5 mg/kg, kidneys 24 h after infection
[12] = Fourth run, IP 1.5 mg/kg, kidneys 24 h after infection

SMILES	overall performance in reducing C. albicans CFUs in the kidneys of the mice [2]	log reduction at 0.5 mg/kg [2, 9]	log reduction at 1.5 mg/kg [2, 10]	Mean log10 CFU/kidneys (±SEM) [2, 11] [log10 CFU/kidneys]	Mean log10 CFU/kidneys (±SEM) [2, 12] [log10 CFU/kidneys]	other results
CCCCCOc1ccc(-c2ccc(-c3ccc(C(=O)N[C@H]4C[C@@H](O)C(OCCOCCN)NC(=O)C5[C@@H](O)[C@@H](C)CN5C(=O)C([C@@H](C)O)NC(=O)C([C@H](O)[C@@H](O)c5ccc(O)cc5)NC(=O)C5C[C@@H](O)CN5C(=O)C([C@@H](C)O)NC4=O)cc3)cc2)cc1 (stereo partly shown) [compound 5]	performed strongly	–	–	–	–	Vd ([1]; beagle, in vivo, iv, 1.4 mg/kg): 0.627 ± 0.0139 L/kg; half-life ([1]; beagle, in vivo, iv, 1.4 mg/kg): 33.7 ± 3.28 h; log reduction at 0.5 mg/kg [2, 3]: 1.22; log reduction at 1.5 mg/kg [2, 4]: 4.15; log reduction at 4.5 mg/kg [2, 5]: 4.87; Mean log10 CFU/kidneys (±SEM) [2, 6]: 3.65 ± 0.10 log10 CFU/kidneys; Mean log10 CFU/kidneys (±SEM) [2, 7]: 0.73 ± 0.42 log10 CFU/kidneys; Mean log10 CFU/kidneys (±SEM) [2, 8]: 0.00 ± 0.00 log10 CFU/kidneys
CCCCCOc1ccc(-c2ccc(-c3ccc(C(=O)N[C@H]4C[C@@H](O)C(NCCNCCO)NC(=O)C5[C@@H](O)[C@@H](C)CN5C(=O)C([C@@H](C)O)NC(=O)C([C@H](O)[C@@H](O)c5ccc(O)cc5)NC(=O)C5C[C@@H](O)CC5C(=O)C([C@@H](C)O)NC4=O)cc3)cc2)cc1 (stereo partly shown) [compound 18]	performed strongly	2.56	3.95	2.54 ± 0.17	1.15 ± 0.09	CI ([1]; 1.4 mg/kg intravenous slow bolus, mean ± SEM, n = 4 beagle dogs): 0.377 ± 0.018 mL/min/kg; half-life ([1]; plasma, 1.4 mg/kg intravenous slow bolus, mean ± SEM, n = 4 beagle dogs, read-out: T ½ (converted)): 21 ± 1.16 h; Vd ([1]; plasma, 1.4 mg/kg intravenous slow bolus, mean ± SEM, n = 4 beagle dogs, read-out: Vz): 0.687 ± 0.0584 L/kg
CCCCCOc1ccc(-c2ccc(-c3ccc(C(=O)N[C@H]4C[C@@H](O)C(NCCOCCO)NC(=O)C5[C@@H](O)[C@@H](C)CN5C(=O)C([C@@H](C)O)NC(=O)C([C@H](O)[C@@H](O)c5ccc(O)cc5)NC(=O)C5C[C@@H](O)CN5C(=O)C([C@@H](C)O)NC4=O)cc3)cc2)cc1 (stereo partly shown) [compound 11]	performed moderately	0.29	2.13	4.82 ± 0.20	2.98 ± 0.03	–
CCCCCOc1ccc(-c2ccc(-c3ccc(C(=O)N[C@H]4C[C@@H](O)C(NCCOCCN)NC(=O)C5[C@@H](O)[C@@H](C)CN5C(=O)C([C@@H](C)O)NC(=O)C([C@H](O)[C@@H](O)c5ccc(O)cc5)NC(=O)C5C[C@@H](O)CC5C(=O)C([C@@H](C)O)NC4=O)cc3)cc2)cc1 (stereo partly shown) [compound 12]	performed strongly	1.9	3.5	3.20 ± 0.11	1.60 ± 0.09	–
CCCCCOc1ccc(-c2ccc(-c3ccc(C(=O)N[C@H]4C[C@@H](O)C(NCCOCCOCCOCCOC)NC(=O)C5[C@@H](O)[C@@H](C)CN5C(=O)C([C@@H](C)O)NC(=O)C([C@H](O)[C@@H](O)c5ccc(O)cc5)NC(=O)C5C[C@@H](O)CN5C(=O)C([C@@H](C)O)NC4=O)cc3)cc2)cc1 (stereo partly shown) [compound 10]	performed poorly	0.21	0.01	4.89 ± 0.06	5.09 ± 0.11	–
CCCCCOc1ccc(-c2ccc(-c3ccc(C(=O)N[C@H]4C[C@@H](O)C(NCCN)NC(=O)C5[C@@H](O)[C@@H](C)CN5C(=O)C([C@@H](C)O)NC(=O)C([C@H](O)[C@@H](O)c5ccc(O)cc5)NC(=O)C5C[C@@H](O)CC5C(=O)C([C@@H](C)O)NC4=O)cc3)cc2)cc1 (stereo partly shown) [compound 15]	performed strongly	3.01	3.81	2.09 ± 0.16	1.29 ± 0.18	log reduction at 0.5 mg/kg [2, 3]: 3.63; log reduction at 1.5 mg/kg [2, 4]: 3.91; log reduction at 4.5 mg/kg [2, 5]: 4.15; Mean log10 CFU/kidneys (±SEM) [2, 6]: 1.25 ± 0.45 log10 CFU/kidneys; Mean log10 CFU/kidneys (±SEM) [2, 7]: 0.96 ± 0.57 log10 CFU/kidneys; Mean log10 CFU/kidneys (±SEM) [2, 8]: 0.73 ± 0.42 log10 CFU/kidneys
CCCCCOc1ccc(-c2ccc(-c3ccc(C(=O)N[C@H]4C[C@@H](O)C(OCCNC)NC(=O)C5[C@@H](O)[C@@H](C)CN5C(=O)C([C@@H](C)O)NC(=O)C([C@H](O)[C@@H](O)c5ccc(O)cc5)NC(=O)C5C[C@@H](O)CN5C(=O)C([C@@H](C)O)NC4=O)cc3)cc2)cc1 (stereo partly shown) [compound 3]	performed moderately	–	–	–	–	log reduction at 5 mg/kg ([2]; Candida albicans, R303, ip, 24 h, First run, IP 5 mg/kg, read-out: Difference from 24-h control): 3.63; Mean log10 CFU/kidneys (±SD) ([2]; First run, IP 5 mg/kg, neutropenic mice, kidneys 24 h after infection): 1.57 ± 0.20 log10 CFU/kidneys
CC[C@H](C)C[C@H](C)CCCCCCCCC(=O)N[C@H]1C[C@@H](O)[C@@H](NCCN)NC(=O)[C@@H]2[C@@H](O)CCN2C(=O)[C@H]([C@H](O)CCN)NC(=O)[C@H]([C@H](O)[C@@H](O)c2ccc(O)cc2)NC(=O)[C@@H]2C[C@@H](O)CN2C(=O)[C@H]([C@@H](C)O)NC1=O [caspofungin, reference compound]	–	–	–	–	–	log reduction at 0.5 mg/kg ([2]; Candida albicans, R303, ip, 24 h, Third run, IP 0.5 mg/kg, read-out: Difference from 24-h control): 4.88; log reduction at 1.5 mg/kg ([2]; Candida albicans, R303, ip, 24 h, Third run, IP 1.5 mg/kg, read-out: Difference from 24-h control): 4.48; log reduction at 4.5 mg/kg ([2]; Candida albicans, R303, ip, 24 h, Third run, IP 4.5 mg/kg, read-out: Difference from 24-h control): 5.2; Mean log10 CFU/kidneys (±SEM) ([2]; Third run, IP 0.5 mg/kg, kidneys 24 h after infection): 0.33 ± 0.33 log10 CFU/kidneys; Mean log10 CFU/kidneys (±SEM) ([2]; Third run, IP 1.5 mg/kg, kidneys 24 h after infection): 0.73 ± 0.42 log10 CFU/kidneys; Mean log10 CFU/kidneys (±SEM) ([2]; Third run, IP 4.5 mg/kg, kidneys 24 h after infection): 0.00 ± 0.00 log10 CFU/kidneys
